From patent US20210308137A1, “ANTIVIRAL COMPOUNDS AND METHOD FOR TREATING HEPATOTROPIC VIRAL INFECTION, PARTICULARLY HEPATITIS B AND HEPATITIS D” (priority 2020, published 2021)

Columns and labels:
HBV [1] = assay: In vitro antiviral IC50 compared with Lamifudine in the same human liver cell line; format: cell-based; conditions: human liver cell line as the host
From the text: The potency difference is significant.

[2] = Cell viability MTT assay in HuS-E/2 cells; format: cell-based; conditions: human
Procedure: (§1) HepG2.2.15 and HuS-E/2 cells were seeded at 1×10^4 cells/well in a 96-well plate for 20 h, then the cells were treated with the tested compounds at various concentration (0-500 μM) for 48 h. After the treatment, cell viability was examined using MTT [3-(4,5-dimethylthiazol-2-yl)-2,5-diphenyl tetrazolium bromide] assay (Sigma Chemical Co.). Briefly, a final concentration of 0.5 mg/ml MTT was added to each well and the samples were incubated for 1 h at 37° C., and then the supernatant was aspirated. The MTT-formazan crystals formed by metabolically viable cells were dissolved in 70 μl of DMSO, and the absorbance at 550 nm was measured on a microplate reader.
(§2) The compounds used were SH-001, SH-002, and SH-003. Before testing their potential antiviral effect on HBV and HDV infection, we first examined their toxicity on VeroE6 cells, HepG2.2.15 cells and HuS-E/2 immortalized human primary hepatocytes cells at concentration from 0 to 320 μM as indicated.

HDV = assay: Inhibition of HDV infection/replication in HuS-E/2 cells (HDV RNA by real-time PCR); conditions: for HDV RNA levels reduced to (percentage of non-drug-treated control): HuS-E/2 cells, 18 h infection + 48 h; for IC50: Hepatitis delta virus, HuS-E/2, read-out: IC50 (HDV RNA); for HDV replication (in words): HuS-E/2 human hepatocytes
Procedure: HDV genome was measured by RT-PCR and expressed as the percentage of the value for the non-drug-treated controls (NT). Control PCRs were performed for endogenous GAPDH mRNA as the loading control. […] The results are the mean±SD for three independent experiments.
HuS-E/2 cells that retain primary hepatocyte characteristics after prolonged culture were utilized for HDV infection. For HDV infection, HuS-E/2 cells were differentiated with 1% DMSO for 5-7 days, and HDV virus particles were added to infect and replicate in HuS-E/2 cells (MOI=10) as described by Huang et al. (J Virol. 2012 September; 86(17):9443-53. Epub 2012 Jun. 27) The HuS-E/2 cells are useful to assay infectivity of HDV, and screening of anti-HDV agents.
The compounds were added to the medium at the indicated concentration during infection with HDV for 18 h, then the infected cells were incubated in medium containing the compounds for further 48 h. Real-time PCR was performed to detect HDV RNA as an efficiency index of HDV infection.
Total DNA was extracted with a Genomic DNA isolation kit (Nexttec Biotechnologie, Germany). Total RNA was isolated from cultured cells using TRIzol® reagent (Invitrogen). Reverse transcription was performed with the RNA templates, AMV reverse transcriptase (Roche), and oligo-dT primer. The products were subjected to real-time PCR with primer sets of specific genes and SYBR Green PCR Master Mix (Bio-Rad). The primer sets used for HBV DNA and HDV RNA were as described by Huang et al. (J Virol. 2012 September; 86(17):9443-53. Epub 2012 Jun. 27) The results were analyzed with the iCycler iQ real-time PCR detection system (Bio-Rad).
The infected cells were then washed and incubated in medium containing the tested compounds for further 48 h, and real-time PCR was used to detect HDV mRNA as an efficiency index of HDV infection.

[3] = Cell viability MTT assay in HepG2.2.15 cells; format: cell-based; conditions: human, 0-320 μM
Procedure: as §1, §2

HBV [4] = assay: Inhibition of HBV replication in HepG2.2.15 cells (HBsAg and HBeAg by ELISA, HBV DNA by real-time PCR); format: cell-based, Hepatitis B virus (ayw subtype); conditions: 48 h; for HBeAg levels reduced to (percentage of non-drug-treated control) / HBsAg levels reduced to (percentage of non-drug-treated control) / amount of HBV DNA in culture medium: 10 μM; for HBeAg levels reduced to (percentage of non-drug-treated control) / HBsAg levels reduced to (percentage of non-drug-treated control): culture medium; for HBeAg levels reduced to (percentage of non-drug-treated control) / HBsAg levels reduced to (percentage of non-drug-treated control) / levels of HBeAg in the culture supernatant (in words) / levels of HBsAg in the culture supernatant (in words) / IC50: ELISA; for amount of HBV DNA in culture medium: untreated cells 3.43*10^5 copies/ml; for levels of HBeAg in the culture supernatant (in words) / levels of HBsAg in the culture supernatant (in words) / HBV DNA (in words) / IC50: HepG2.2.15 cells; for HBV DNA (in words): Q-PCR, dose-dependent; for IC50: Hepatitis B virus, estimated
From the text: Plasmid p1.3HBcl, which contains a 1.3-fold HBV genome (ayw subtype), was used as standard in parallel PCR reactions. The results are expressed as a percentage of the non-drug-treated positive control (NT) and are shown as mean±SD for three independent experiments.
Continuous HBV proliferation can be achieved in HepG2.2.15 cells (RRID:CVCL_L855) stably transfected with the HBV genome of the ayw subtype. HepG2.2.15 cells were maintained in Dulbecco's modified Eagle medium (DMEM; Invitrogen) supplemented with 10% heat-inactivated fetal bovine serum (FBS; Thermo) plus 100 units of penicillin and 100 μg of streptomycin per ml (both from Invitrogen).
The viruses were then collected from the supernatant. Q-PCR was used to detect HBV DNA as an index of efficiency of HBV replication. Next, the HBV HBsAg and HBeAg were examined by ELISA assay.
The culture medium from compound-treated HepG2.2.15 cells was clarified by centrifugation at 1,000×g at 4° C. for 10 min, and then the supernatant was layered on top of a 20% sucrose cushion (20% sucrose, 20 mM HEPES, pH 7.4, 0.1% bovine serum albumin [BSA]) and centrifuged at 197,000×g for 3 h at 4° C. to pellet the HBV particles. The particles were then concentrated 100 fold to detect HBV DNA.
Q-PCR was performed to detect HBV DNA as an efficiency index of HBV replication. Moreover, the HBV HBsAg and HBeAg were examined by ELISA assay.

[5] = Cell viability MTT assay in Vero E6 cells; format: cell-based; conditions: African green monkey
Procedure: as §1, §2

| SMILES | IC50 (HDV) [µM] | HDV replication (in words) (HDV) | IC50 (HBV [1]; Hepatitis B virus) [µM] | CC50 at 48 h [3] [µM] | HBeAg levels reduced to (percentage of non-drug-treated control) (HBV [4]) [%] | HBsAg levels reduced to (percentage of non-drug-treated control) (HBV [4]) [%] | amount of HBV DNA in culture medium (HBV [4]) | levels of HBeAg in the culture supernatant (in words) (HBV [4]) | levels of HBsAg in the culture supernatant (in words) (HBV [4]) | HBV DNA (in words) (HBV [4]) | IC50 (HBV [4]; read-out: IC50 (HBeAg)) [µM] | IC50 (HBV [4]; read-out: IC50 (HBsAg)) [µM] | CC50 at 48 h [5] [µM] | also measured |
| --- | --- | --- | --- | --- | --- | --- | --- | --- | --- | --- | --- | --- | --- | --- |
| Nc1ccn([C@@H]2CS[C@H](CO)O2)c(=O)n1 [Lamifudine, reference compound] | – | – | – | – | – | – | – | – | – | – | – | – | – | IC50 (HBV [1]): 0.358 µM |
| O=C(O)c1ccc2c(c1)nc(Nc1cccc(Cl)c1)c1ccncc12 [SH-001, Silmitasertib] | ~0.146 | significantly inhibited | ≥ 0.005 | > 195 | 53.66±3.02 | 39.85±1.78 | 5.51*10^4 copies/ml | significantly decreased | significantly decreased | repressed | 12 | 6.63 | – | CC50 at 48 h ([2]; HuS-E/2 cells, 48 h, MTT, 0-320 μM, read-out: CC50): > 195 µM; HDV RNA levels reduced to (percentage of non-drug-treated control) (HDV; 2.5 μM): 28.8±22.8%; HDV RNA levels reduced to (percentage of non-drug-treated control) (HDV; 5 μM): 8.7±1.3%; CC50 at 48 h ([5]; VeroE6 cells, 48 h, MTT, 0-320 μM, read-out: CC50): > 205 µM |
| O=C1NC(=O)/C(=C/c2cnn3c(NC4CC4)cc(Nc4cc(Cl)ccc4F)nc23)N1 [SH-002] | ~0.069 | significantly inhibited | ≥ 0.005 | > 164 | 61.18±6.43 | 52.01±3.05 | 3.13*10^4 copies/ml | significantly decreased | significantly decreased | repressed | 168 | 11.8 | > 61.3 | CC50 at 48 h [2]: > 164 µM; HDV RNA levels reduced to (percentage of non-drug-treated control) (HDV; 0.1 μM): 53.1±16.8%; HDV RNA levels reduced to (percentage of non-drug-treated control) (HDV; 0.2 μM): 40.8±18.6% |
| CC(N)C(=O)OCN1C(=O)N/C(=C\c2cnn3c(NC4CC4)cc(Nc4cc(Cl)ccc4F)nc23)C1=O (stereo not shown) [SH-003] | – | – | – | – | – | – | – | – | – | – | – | – | > 205 | – |
